Experimental data published in patent publication US5349127A, “Expression of herbicide metabolizing cytochromes P450” (priority 1992, dated 1994).

What was measured:
[1] = tested on: S. lividans pCAO200SU1#12; assay: Sulfonylurea metabolism by washed cell suspension (Examples 6-9); type: in vitro ADME, Streptomyces lividans; conditions: substrate 10010
Procedure: Herbicides and their metabolites are measured by HPLC as described by Romesser et al., BBRC 140: 650-659 (1986), herein incorporated by reference, except that 0.1% H3 PO4 is used in both solvents. Chromatographic identity and quantitation of the herbicides and their resulting metabolites is determined by comparing them chromatographically with authentic standard compounds. Identity of the resulting metabolites is also confirmed by UV spectroscopy. […]
(§1) S. lividans transformed respectively with pCAO200SU1-FeS-B#9, pCAO200SU#112and pCAO200 were cultured for 36 hours in 400 ml of YEME broth at 30° C. S. griseolus ATCC 11796 was similarly cultured in 400 ml of sporulation broth. Six hours before harvesting the cells, 150 ml of fresh YEME broth was added to the S. lividans cells, and the S. griseolus cells were split into two 200 ml cultures with 100 ml of fresh sporulation broth added to each. 10001 (36 mg) was added to one of the two S. griseolus cultures to induce cytochrome P450SU1. The cells were prepared as described above in Example 5 and the concentrations of the sulfonylurea compound 10006 and its metabolites 10007, 10008 or 10009 were determined.

S. lividans pCAO200 = assay: as above; type: in vitro ADME, Streptomyces lividans; conditions: substrate 10010
[2] = tested on: S. lividans pCAO200SU1-FeS-B#9; assay: as above; type: in vitro ADME, Streptomyces lividans; conditions: substrate 10010
Procedure: Herbicides and their metabolites are measured by HPLC as described by Romesser et al., BBRC 140: 650-659 (1986), herein incorporated by reference, except that 0.1% H3 PO4 is used in both solvents. Chromatographic identity and quantitation of the herbicides and their resulting metabolites is determined by comparing them chromatographically with authentic standard compounds. Identity of the resulting metabolites is also confirmed by UV spectroscopy.
A 100 ml culture of S. griseolus ATCC 11796 in sporulation broth and a 50 ml culture of S. lividans transformed with pCAO400 in YEME broth were prepared and incubated for 24 hours as described. At that time, the S. griseolus culture was split into two 50 ml aliquots into two separate flasks and 25 ml of fresh sporulation broth was added to each and 9 mg of […] was added to one of these cultures to induce cytochrome P450SU1 expression. Fresh YEME broth (25 ml) was added to the S. lividans culture. After an additional 6 hours growth at 30° C., the cells in each culture were harvested as described above, washed twice with MOPS (50 mM, pH 7.2) and recentrifuged. The cell pellets were resuspended in four cell volumes of MOPS (50 mM, pH 7.2) containing 0.2% glucose and about 100 μg/ml of 10004. These cell suspensions were incubated at 30° C. with shaking and aliqouts were taken at 2 and 5.5 hours. The supernatant of each aliquot was analyzed by HPLC and the concentrations of the sulfonylurea compound 10004 and its metabolite 10005 were determined.
as §1, with “The cells were prepared as described above in Example 5 and the concentrations of the sulfonylurea compound 10006 and its metabolites 10007, 10008 or 10009 were determined.” left out

[3] = tested on: leaves of transformed tobacco; assay: Metabolism of 10015 to 10014 in excised tobacco leaves (Example 20); type: in vitro ADME, Nicotiana tabacum
Procedure: Plants were grown from tobacco seed produced by self-pollinated transformed plants in Metro-Mix® 350 under 16 hour light (light intensity of 400 μEinsteins per second per square meter at pot level, 22° C. and 80% relative humidity) followed by 8 hours of dark (18° C. and 70 to 80% relative humidity) and watered three times daily with half strength Hoagland's solution. The presence of the cytochrome P450 protein in individual plants was confirmed by Western blot analysis before testing for sulfonylurea metabolism.
During growth, the tobacco plants produced leaves attached to the main stalk, none of which were of the same age or size. Removal of leaves attached to the main stalk of each plant forced the growth of lateral shoots which in turn produced the many leaves of similar size and age needed for the experiments. The leaves were excised under water with a scalpel. These leaves were transferred to cups with the uptake solution (20 ppm sulfonylurea in 1 mM potassium phosphate buffer, pH 7.0) and allowed to take up the solution through the cut leaf base for 2 hours in the light (200 μEinsteins per second per sq. meter) at 22° C. and 86% relative humidity. At the end of the uptake period, sample leaves were either frozen in liquid nitrogen and stored at -20° C. (designated '0 hour post-uptake samples') or transferred to cups with phosphate buffer alone for an additional 5 hours of incubation in the light before freezing (designated 5 hour post-uptake samples'). In the 10001 experiments some leaves were incubated for 21 hours post-uptake under continuous light (200 μEinsteins per second per square meter, 22° C., and 63% relative humidity).
Individual leaves were extracted with 30 ml acetone/water (80%/20% by volume) for 1 minute in a Sorvall® Omni-Mixer. The brei was centrifuged to remove the tissue debris. Acetone in the supernatant was removed under a stream of nitrogen. The resulting aqueous extract was acidified to pH 2 to 3 with sulfuric acid and then extracted three times with methylene chloride. The combined methylene chloride extracts were reduced to dryness by rotary evaporation at 30° to 40° C. The dry residue was dissolved in acetone for transfer to a vial. Once transferred the acetone was removed by evaporation under a stream of nitrogen. Before HPLC analysis the dry sample was redissolved in 1.0 ml of acetonitrile/water (25%/75%). HPLC separations were carried out on a Zorbax® ODS column (4.6 mm×250 man) at 45° C. with a flow rate of 1.4 ml per minute. […] 10015 and its metabolites were detected at 254 nm while ^14 C-10001 and its metabolites were detected with a Radiomatic Flo-One® detector. A diode array detector was used in separate experiments to obtain the absorbance spectra of the 10015 metabolite and an 10014 standard in the HPLC analysis of several extracts (HPLC method is described in Romesser et al., Biochem. Biophys. Res. Comm., 140:650-659 (1986)). Comparison of the metabolite absorbance spectrum with that of the 10014 confirmed the metabolite's identity.

For COC(=O)c1ccccc1S(=O)(=O)NC(=O)Nc1nc(C)cc(C(=O)O)n1 [compound 10012, N-[(4-carboxy-6-methylpyrimidin-2yl)aminocarbonyl]-2-methoxycarbonylbenzenesulfonamide], the concentration in supernatant ([1]; 2 h) was 0 nM, the concentration in supernatant ([1]; 4 h) was 0 nM and the concentration in supernatant ([1]; 6 h) was 0 nM. For the same molecule, the concentration in supernatant (S. lividans pCAO200; 2 h) was 0 nM, the concentration in supernatant (S. lividans pCAO200; 4 h) was 0 nM and the concentration in supernatant (S. lividans pCAO200; 6 h) was 0 nM. It also gave a concentration in supernatant ([2]; 2 h) of 2 µM, a concentration in supernatant ([2]; 4 h) of 12 µM and a concentration in supernatant ([2]; 6 h) of 20 µM.
In the case of COc1cc(OC)nc(NC(=O)NS(=O)(=O)c2cccc3c2S(=O)(=O)NC3)n1 [compound 10014, 2,3-dihydro-N-[(4,6-dimethoxypyrimidin-yl)aminocarbonyl]-1,2-benzisothiazol-7-sulfonamide-1,1-dioxide], the 10014 levels ([3]; AGS112 (control, no P450SU1), 0 hour post-uptake) is reported as 0 μg/leaf, the 10014 levels ([3]; AGS112 (control, no P450SU1), 5 hour post-uptake) is reported as 0 μg/leaf and the 10014 levels ([3]; Cab-SU131.5 (chloroplast directed), 0 hour post-uptake) is reported as 1.3 μg/leaf. The 10014 levels ([3]; Cab-SU131.5 (chloroplast directed), 5 hour post-uptake) was 2.9 μg/leaf, the 10014 levels ([3]; SSU-SU111.5 (chloroplast directed), 0 hour post-uptake) was 2.1 μg/leaf and the 10014 levels ([3]; SSU-SU111.5 (chloroplast directed), 5 hour post-uptake) was 1.8 μg/leaf. The 10014 levels ([3]; SSU-SU121.3 (chloroplast directed), 0 hour post-uptake) was 1.2 μg/leaf, the 10014 levels ([3]; SSU-SU121.3 (chloroplast directed), 5 hour post-uptake) was 1.7 μg/leaf and the 10014 levels ([3]; SU18.15 (cytoplasm directed), 0 hour post-uptake) was 0 μg/leaf. For the same molecule, the 10014 levels ([3]; SU18.15 (cytoplasm directed), 5 hour post-uptake) was 0 μg/leaf, the 10014 levels ([3]; SU18.8 (cytoplasm directed), 0 hour post-uptake) was 0 μg/leaf and the 10014 levels ([3]; SU18.8 (cytoplasm directed), 5 hour post-uptake) was 0 μg/leaf. The 10014 levels ([3]; W38, 20 ppm 10015 uptake 2 h, 0 hour post-uptake) was 0 μg/leaf and the 10014 levels ([3]; W38, 20 ppm 10015 uptake 2 h, 5 hour post-uptake) was 0 μg/leaf.
